In US4600710A, “β-Adrenergic receptor agonist alkylaminoalkyl pyridinemethanol derivatives” (G. D. Searle & Co., priority 1985, dated 1986):
Where a name gives a salt, the structure may show the parent alone.

How the values were obtained:
[1] = system: spontaneously hypertensive rats; assay: Intravenous dose-response studies in conscious spontaneously hypertensive rats; type: in vivo, rat; conditions: conscious SHR
Procedure: Six adult male spontaneously hypertensive rats were anesthetized with ether and instrumented with carotid artery and jugular vein catheters. The rats were allowed to recover from surgery and ether anesthesia for three to five hours. The test compound was administered intravenously in saline at doses of 0.1, 0.2, 0.7, 2, 7, and 20 mg/kg to give cumulative doses of 0.1, 0.3, 1, 3, 10, and 30 mg/kg. At the completion of these injections propranolol, a beta-adrenergic antagonist, was administered intravenously at a dose of 1 mg/kg and the injections of the test compound were repeated. The volume of each injection was 0.1 ml/100 grams of body weight. Mean arterial pressure and heart rate were measured via the carotid artery with a Statham pressure transducer and Gould physiological recorder. Results were analyzed using a paired t-test.

[2] = system: spontaneously hypertensive rats; assay: Oral dosing studies in conscious spontaneously hypertensive rats; type: in vivo, rat; conditions: conscious SHR, daily oral dosing 100 mg/kg for 3 days
Procedure: Ten adult male spontaneously hypertensive rats were anesthetized with sodium pentobarbital and instrumented with a carotid arterial catheter. On the following day each rat was tethered in a plastic cage and arterial blood pressure and heart rate were monitored via the arterial catheter continuously for 72 hours. Each rat was dosed intragastrically with 100 mg/kg of the test compound each day for three days. A vehicle treated group (saline) of 10 rats was tested simultaneously. Differences in blood pressure between the treated and vehicle group were analyzed by the Kraskal-Wallis and Wilcoxon rank sum tests.

[3] = system: spontaneously hypertensive rats; assay: Systemic hemodynamics in pentobarbital anesthetized spontaneously hypertensive rats; type: in vivo, rat
Procedure: Five adult male spontaneously hypertensive rats were anesthetized with sodium pentobarbital and instrumented with a femoral artery catheter for measuring arterial pressure and heart rate. The jugular vein was catheterized for injections and a thermocouple was placed in the aortic arch via the carotid artery for cardiac output measurement by the thermodilution technique. The trachea was cannulated and the rats breathed 100% oxygen. Control readings were taken and the test compound was injected in doses ranging from 0.1 to 30 mg/kg iv. After the 30 mg/kg dose, propranolol was injected iv at a dose of 1 mg/kg. Changes in hemodynamic parameters from control readings were analyzed by the paired t-test.

β-adrenergic receptor = molecular target: T1, β-adrenergic receptor (Rattus norvegicus, UniProt P10608); assay: Beta-adrenergic receptor binding ([3H]DHA displacement, rat cerebellum plasma membranes); conditions: rat cerebellum cortex membranes, 1 nM [3H]DHA; read-out: IC50, inhibition of β-adrenergic receptor binding of tritiated dihydroalprenolol
T1 construct: Rat cerebellums were homogenized in 20 volumes of ice cold 50 mM Tris-HCl buffer; from tissue; host or cells: rat cerebellum (crude plasma membranes)
Procedure: Tissue preparation: Rat cerebellum plasma membranes were prepared by the method of U'Prichard et al, (J. Biol. Chem., 253, No. 14, pp. 5090-5102, 1978). Rat cerebellums were homogenized in 20 volumes of ice cold 50 mM Tris-HCl buffer (pH 7.4) with a Tekmar homogenizer. Crude plasma membranes were obtained by centrifugation at 45,000× g for 15 min with an intermediate rehomogenization in fresh buffer. The final pellets were resuspended in ten volumes of 50 mM buffer with 0.25M sucrose.
Binding Assay: Rat cerebellum plasma membrane preparations (10 mg wet weight per ml in a volume of one ml) were incubated with 1 nM [^3 H] DHA in buffer, 1 mM catechol and 0.01% ascorbic acid, either in the presence or absence of various amounts of test substance at room temperature for 20 minutes. Bound and free radioligand were separated by addition of 3.5 ml buffer (0° C.) followed by rapid filtration through Whatman GF/B glass fiber filter. The filter was then washed rapidly with three 3.5 ml buffer (3X). Specific binding was defined as the amount of the [^3 H]DHA bound in the absence of competing ligand minus the amount bound in the presence of 10 uM (±) propranolol (nonspecific binding). […] IC50 (inhibitory concentration -50%) values were calculated from the displacement data after logit-log transformation with least squares linear regression.

T1 sequence (P10608 whole entry): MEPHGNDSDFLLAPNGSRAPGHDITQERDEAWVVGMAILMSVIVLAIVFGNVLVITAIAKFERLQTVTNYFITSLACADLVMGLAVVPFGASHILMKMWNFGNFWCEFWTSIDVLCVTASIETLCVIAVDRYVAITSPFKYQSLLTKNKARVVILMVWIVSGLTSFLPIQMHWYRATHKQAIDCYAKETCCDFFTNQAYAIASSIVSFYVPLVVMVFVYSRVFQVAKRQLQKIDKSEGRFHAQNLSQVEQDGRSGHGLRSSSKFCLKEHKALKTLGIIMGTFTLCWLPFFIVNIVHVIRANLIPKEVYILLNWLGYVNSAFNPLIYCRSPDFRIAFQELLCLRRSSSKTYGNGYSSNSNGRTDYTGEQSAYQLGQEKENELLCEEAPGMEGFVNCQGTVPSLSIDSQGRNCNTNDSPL

SMILES	ED25 ([1]; Rattus norvegicus, iv, cumulative doses 0.1-30 mg/kg, read-out: calculated intravenous dose reducing mean arterial pressure by 25%) [mg/kg]	elevation of heart rate [2] [beats/min]	time pressure remained reduced [2] [h]	lowering of mean arterial pressure ([2]; at 3-4 hours after dosing) [mmHg]	total peripheral resistance after compound ([3]; pentobarbital anesthetized SHR, iv 0.1 to 30 mg/kg, decreased from control 3 units) [units]	cardiac output after compound ([3]; pentobarbital anesthetized SHR, iv 0.1 to 30 mg/kg, increased from control 72 ml/min) [mL/min]	IC50 (β-adrenergic receptor) [µM]	effect of propranolol on blood pressure and heart rate changes produced by the compound of the invention ([1]; propranolol 1 mg/kg iv)	effect of propranolol on hemodynamic effects (cardiac output, total peripheral resistance) of the compound of the invention ([3]; propranolol 1 mg/kg iv after the 30 mg/kg dose, anesthetized SHR)
CC(C)NCC(O)c1cccnc1 (stereo not drawn) [Example 1B, oxalate salt]	37	114	6 to 10	39	1.1	92	39	–	–
CC(C)NCC(O)COc1cccc2ccccc12 (stereo not drawn) [Propranolol, propranolol, reference compound]	–	–	–	–	–	–	–	attenuated the hypertension and tachycardia	reversed these hemodynamic effects
